Assay results as given in patent US20100021950A1, “SCREENING METHOD FOR ANTI-DIABETIC COMPOUNDS” (priority 2007, published 2010).
Where two headings read alike, the source gives them in different places.

Tests used:
MIN6 cells = assay: Insulin secretion from MIN6 cells; assay type: cell-based, mouse; conditions: 25 mM glucose
Description: MIN6 cells (Miyazaki et al. (1990) Endocrinol. 127, 126) at passages 37-47 were maintained as previously described (Nikolova et al. (2006) Dev. Cell 10, 397). The cells were electroporated with pEGFP, pEGFP-wtEphA5 (Gao et al. (1998) Proc. Natl. Acad. Sci. U.S.A. 95, 5329), pEGFP-DN-EphA5 (Gao et al. (1998) Proc. Natl. Acad. Sci. U.S.A. 95, 5329), pEGFP-ephrin-A5, (Wimmer-Kleikamp et al. (2004) J. Cell Biol. 164, 661), pEGFP-wtRac1, pEGFP-DN-Rac1 (Rac1N17) (Hall (2005) Biochem. Soc. Trans. 33, 891) and pcDNA-Cx36 constructs (Ravier et al. (2005) Diabetes 54, 1798); siRNA against firefly luciferase (control siRNA), ephrin-A5 and Cx36 by using Amaxa nucleofection (Amaxa biosystems).
For insulin secretion measurements, islets or MIN6 cells were starved for 1 h in Krebs Ringer Buffer (KRB) containing 115 mM NaCl, 5 mM KCl, 1.2 mM KH2PO4, 1 mM MgSO4, 2.5 mM CaCl2, 24 mM NaHCO3, 2 mM glucose, 25 mM HEPES (pH 7.4), and 0.1% bovine serum albumin. After starvation, medium was exchanged for the same buffer +/− Fc fusion proteins to measure basal secretion, or for KRB containing 25 mM glucose +/− Fc fusion proteins to measure glucose-stimulated insulin secretion, during 1 h incubation. When Fc fusion proteins were used, islets were continuously shaken (300-500 rpm) to facilitate access of Fc fusion proteins to islet β-cells. The amount of secreted insulin was measured in the medium, and islets or MIN6 cells were subsequently dissolved in RIPA buffer to measure insulin content and total protein content. Secreted insulin was normalized to total insulin content and total protein content, and presented as % of basal control insulin secretion. In all histograms, the first column represents the basal control (=100%), except in FIG. 3C, in which the third column is taken as basal control. Secreted insulin and insulin content were measured by using ultra-sensitive rat insulin ELISA kit (Crystal Chem inc.). The total protein content was measured using BCA kit (Molecular Probes). […]

mouse pancreatic islets [1] = assay: Insulin secretion from mouse pancreatic islets; assay type: cell-based; conditions: 25 mM glucose, 1 h; Fc fusion proteins 4 μg/ml, peroxovanadate 10 μM; compared with Fc
Description: Pancreatic islets were isolated from NMRI mice for all experiments, except for the experiments with male ephrin-A5-/- and control littermates, which were C57BL/6 (Knoll et al. (2001) Development 128, 895). All mice used were 8-10 weeks old. Human pancreatic islets were isolated from a perfused human pancreas by using a protocol approved by the Ethical Research Committee of the Technical University Medical School Dresden and according to the law of the State of Saxony. Mouse and human islets were cultured overnight in Dulbecco's modified Eagle's medium (DMEM) containing 11 mM glucose (Gibco), supplemented with 10% heat inactivated fetal calf serum (FCS), 100U/ml Penicillin, 100 μg/ml Streptomycin, 1.5 g/L NaHCO3 in a humidified atmosphere (5% CO2, 37° C.). […]
For insulin secretion measurements, islets or MIN6 cells were starved for 1 h in Krebs Ringer Buffer (KRB) containing 115 mM NaCl, 5 mM KCl, 1.2 mM KH2PO4, 1 mM MgSO4, 2.5 mM CaCl2, 24 mM NaHCO3, 2 mM glucose, 25 mM HEPES (pH 7.4), and 0.1% bovine serum albumin. […] The amount of secreted insulin was measured in the medium, and islets or MIN6 cells were subsequently dissolved in RIPA buffer to measure insulin content and total protein content. […] Secreted insulin and insulin content were measured by using ultra-sensitive rat insulin ELISA kit (Crystal Chem inc.). The total protein content was measured using BCA kit (Molecular Probes). […]

mouse pancreatic islets [2] = conditions: 10 μM, Gogg et al. (2001); cited from earlier work
EphA5 = EphA5 immunoprecipitation and phosphotyrosine Western blot, MIN6 cells; assay type: cell-based, mouse; conditions: 10 μM, 25 mM glucose, 5 min
Method: MIN6 cells and pancreatic islets were lysed in RIPA buffer, supplemented with protease and phosphatase inhibitors. 1 μg total protein, isolated from MIN6 cell lysates or 500 ng total protein, isolated from islet lysates, were used for immunoprecipitation with 1:1,000-diluted rabbit-anti-EphA5 (Santa Cruz) and protein-A beads (Amersham). For immunoprecipitation/pull-down of Rac1-GTP with Pak1-PBD (P21-activated kinase-1-P21 Binding Domain) and Westem blots, a Rac1 Activation StressXPress Kit (Biomol) was used. The immunoprecipitates were separated on 4-12% gradient SDS-polyacrylamide gels (Invitrogen) and transferred onto a PVDF membrane (Amersham). For western blots, 1:500-diluted rabbit-anti-EphA5 antibody (Santa Cruz), 1:1,000-diluted mouse-anti-PY antibody (Biomol) and 1:200-diluted rabbit-anti-Rac1 antibody (Santa Cruz) were used. 1:10,000-diluted HRP-conjugated donkey-anti-rabbit antibody (Dianova) and 1:5,000-diluted HRP-conjugated goat-anti-mouse antibody (Dianova) were used as secondary antibodies. Western blots were developed using an ECL system (Amersham). The intensities of EphA5 and Rac1 bands were normalized to the intensities of total EphA5 and Rac1, respectively, and presented as % of basal control. The intensities of the bands were quantified by using TotalLab software (Stratagene).

Question: With peroxovanadate as the molecule, how does the glucose-stimulated insulin secretion (MIN6 cells; confluent MIN6 cells, 1 h, Fc fusion proteins 4 μg/ml, peroxovanadate 10 μM, compared with Fc) read?
Answer: Its glucose-stimulated insulin secretion is “reduced”.

Question: And the glucose-stimulated insulin secretion (mouse pancreatic islets [1])?
Answer: The glucose-stimulated insulin secretion was “reduced”.

Question: What about the glucose-stimulated insulin secretion (mouse pancreatic islets [2]) of the same molecule?
Answer: Its glucose-stimulated insulin secretion is “strongly reduced”.

Question: And the “glucose-induced EphA5 dephosphorylation” value (EphA5)?
Answer: The value was “effectively prevented”.

Question: And the “EphA5 phosphorylation levels at stimulatory conditions” value (EphA5; relative to basal levels)?
Answer: Its value is “increased”.

B1: wt EphA5: full-length EphA5 protein over-expressed in MIN6 cells from pEGFP-wtEphA5 (protein, UniProt Q60629 1-876, looked up)
chain: MRGSGPRGAGHRRTQGRGGGDDTPRVPASLAGCYSAPLKGPLWTCLLLCAALRTLLASPSNEVNLLDSRTVMGDLGWIAFPKNGWEEIGEVDENYAPIHTYQVCKVMEQNQNNWLLTSWISNEGASRIFIELKFTLRDCNSLPGGLGTCKETFNMYYFESDDENGRSIKENQYIKIDTIAADESFTELDLGDRVMKLNTEVRDVGPLSKKGFYLAFQDVGACIALVSVRVYYKKCPSVVRHLAIFPDTITGADSSQLLEVSGSCVNHSVTDDPPKMHCSAEGEWLVPIGKCMCKAGYEEKNGTCQAPSPVTNVKKGKIAKNSISLSWQEPDRPNGIILEYEIKYFEKDQETSYTIIKSKETSITAEGLKPASVYVFQIRARTAAGYGVFSRRFEFETTPVSVAASNDQSQIPIIAVSVTVGVILLAVMIGFLLSGSCCDCGCGRASSLCAVAHPSLIWRCGYSKAKQDPEEEKMHFHNGHIKLPGVRTYIDPHTYEDPNQAVHEFAKEIEASCITIERVIGAGEFGEVCSGRLKLPGKRELPVAIKTLKVGYTEKQRRDFLGEASIMGQFDHPNIIHLEGVVTKSKPVMIVTEYMENGSLDTFLKKNDGQFTVIQLVGMLRGIAAGMKYLSDMGYVHRDLAARNILINSNLVCKVSDFGLSRVLEDDPEAAYTTRGGKIPIRWTAPEAIAFRKFTSSSDVWSYGIVMWEVVSYGERPYWEMTNQDVIKAVEEGYRLPSPMDCPAALYQLMLDCWQKDRNSRPKFDEIVNMLDKLIRNPSSLKTLVNASSRVSTLLAEHGSLGSGAYRSVGEWLEAIKMGRYTEIFMENGYSSMDAVAQVTLEDLRRLGVTLVGHQKKIMSSLQEMKVQMVNGMVPV
modifications: full-length EGFP fusion
notes: full-length EphA5 protein over-expressed in MIN6 cells from pEGFP-wtEphA5
Question: With B1 as the molecule, how does the glucose-stimulated insulin secretion (MIN6 cells; over-expression in confluent MIN6 cell monolayers, vs empty vector) read?
Answer: Its glucose-stimulated insulin secretion is “decreased”.

Question: What about the “glucose-stimulated insulin secretion in PV-treated MIN6 cells” value (MIN6 cells; over-expression, 10 μM peroxovanadate, vs empty vector/PV) of the same molecule?
Answer: The value was “reduced”.
